Experimental data: patent US9504251B2, “Pesticidal compositions and related methods” (Dow AgroSciences LLC, priority 2014, dated 2016)

Tests used:
[1] = test system: Sweetpotato Whitefly-crawler (Bemisia tabaci) (WF) (BEMITA); experiment: Sweetpotato whitefly-crawler (WF) foliar spray assay on cotton plants; format: in vivo; settings: 216 h, 200 ppm foliar spray on cotton plants, graded after 9 days, Abbott-corrected % control, disclosed compounds (TABLE 2), read-out: WF % Control (or Mortality) rating
Method: Foliar spray assay for WF was prepared as follows: Cotton plants (Gossypium hirsutum) grown in 3-inch pots, with 1 small (4-5 cm) true leaf, were used as test substrate. The plants were infested with 200-400 whitefly eggs 4-5 days prior to chemical application. Four pots with individual plants were used for each treatment. Tested compounds (2 mg) were dissolved in 1 mL of acetone solvent, forming stock solutions of 2000 ppm tested compound.
The stock solutions were diluted ten times with 0.025% TWEEN® 20 surfactant in H2O (diluents) to obtain the solution at 200 ppm tested compound. A hand-held aspirator-type sprayer was used for spraying the solution to both sides of cotton leaves until runoff. The control plants (solvent check) were sprayed with the diluent only containing 10% by volume of acetone solvent. Treated plants were held in a holding room for 9 days at approximately 25° C. and ambient relative humidity (RH) prior to grading. Evaluation was conducted by counting the number of live 3-4 nymph stage per plant under a microscope. Percent control was measured by using Abbott's correction formula (W. S. Abbott, “A Method of Computing the Effectiveness of an Insecticide,” J. Econ. Entomol. 18 (1925), pp. 265-267) as follows. Corrected % Control=100*(X−Y)/X
X=No. of live nymphs on solvent check plants and
Y=No. of live nymphs on treated plants.
(§1) The comparative compounds were tested for insecticidal activities against GPA and WF pests using the same test protocols described above for the disclosed compounds.

[2] = test system: Green Peach Aphid (Myzus persicae) (GPA) (MYZUPE); experiment: Green peach aphid (GPA) foliar spray bioassay on cabbage seedlings; format: in vivo; settings: 72 h, 200 ppm foliar spray on cabbage seedlings, graded after three days, Abbott-corrected % control, disclosed compounds (TABLE 2), read-out: GPA % Control (or Mortality) rating
Method: Bioassay for GPA was prepared as follows: Cabbage seedlings grown in 3-inch pots, with 2-3 small (3-5 cm) true leaves, were used as test substrate. The seedlings were infested with 20-50 GPA (adult and nymph stages) one day prior to chemical application. Four pots with individual seedlings were used for each treatment. The tested compounds (2 mg) were dissolved in 2 mL of acetone/methanol (1:1) solvent to form stock solutions of 1000 ppm tested compound. The stock solutions were diluted five times with an aqueous solution containing 0.025% TWEEN® 20 surfactant, which is polyoxyethylene (20) sorbitan monolaurate, to obtain the solution at 200 ppm tested compound. A hand-held aspirator-type sprayer was used for spraying the solution to both sides of cabbage leaves until runoff. The control plants (solvent check) were sprayed with the diluent only containing 20% by volume of acetone/methanol (1:1) solvent. Treated plants were held in a holding room for three days at approximately 25° C. and ambient relative humidity (RH) prior to grading. Evaluation was conducted by counting the number of live aphids per plant under a microscope. Percent control was measured by using Abbott's correction formula (W. S. Abbott, “A Method of Computing the Effectiveness of an Insecticide,” J. Econ. Entomol. 18 (1925), pp. 265-267) as follows. Corrected % Control=100*(X−Y)/X
X=No. of live aphids on solvent check plants and
Y=No. of live aphids on treated plants
as §1

Question: Which results are given for O=C(CN1CCc2nn(-c3cccnc3)cc2C1=O)N1CCN(C2CCC2)CC1 [Compound F42, 5-[2-(4-Cyclobutylpiperazin-1-yl)-2-oxo-ethyl]-2-(3-pyridyl)-6,7-dihydropyrazolo[4,3-c]pyridin-4-one]?
Answer: mortality at 200 ppm [1]: 80 to 100%; mortality at 200 ppm [2]: 80 to 100%

Question: O=C1c2cn(-c3cccnc3)nc2CCN1c1ccccn1 [Compound F43, 5-(pyridin-2-yl)-2-(pyridin-3-yl)-6,7-dihydro-2H-pyrazolo[4,3-c]pyridin-4(5H)-one] was tested. Which mortality at 200 ppm [1] did it give?
Answer: 0 to 80%

Question: And the mortality at 200 ppm [2]?
Answer: 80 to 100%

Question: Which results are given for O=C1c2cn(-c3cccnc3)nc2CCN1c1cccc(C(F)(F)F)n1 [Compound F46, 2-(3-Pyridyl)-5-[6-(trifluoromethyl)-2-pyridyl]-6,7-dihydropyrazolo[4,3-c]pyridin-4-one]?
Answer: mortality at 200 ppm [1]: 0 to 80%; mortality at 200 ppm [2]: 80 to 100%

Question: Which mortality at 200 ppm [1] does the source give for O=C1c2cn(-c3cccnc3)nc2CCN1c1cc(C(F)(F)F)ncn1 [Compound F48, 2-(3-Pyridyl)-5-[6-(trifluoromethyl)pyrimidin-4-yl]-6,7-dihydropyrazolo[4,3-c]pyridin-4-one] here?
Answer: 0 to 80%

Question: And the mortality at 200 ppm [2]?
Answer: 80 to 100%

Question: Which mortality at 200 ppm [1] does the source give for O=C1c2cn(-c3cccnc3)nc2CCN1c1ccc(F)cn1 [Compound F49, 5-(5-Fluoro-2-pyridyl)-2-(3-pyridyl)-6,7-dihydropyrazolo[4,3-c]pyridin-4-one] here?
Answer: 0 to 80%

Question: And the mortality at 200 ppm [2]?
Answer: 80 to 100%

Question: Which mortality at 200 ppm [1] does the source give for O=C1c2cn(-c3cccnc3)nc2CCN1Cc1ccc(C(F)(F)F)cc1 [Compound F50, 2-(3-Pyridyl)-5-[[4-(trifluoromethyl)phenyl]methyl]-6,7-dihydropyrazolo[4,3-c]pyridine-4-one] here?
Answer: 0 to 80%

Question: And the mortality at 200 ppm [2]?
Answer: 80 to 100%

Question: Which mortality at 200 ppm [1] does the source give for CS(=O)(=O)CN1CCc2nn(-c3cccnc3)cc2C1=O [Compound F51, 5-((methylsulfonyl)methyl)-2-(pyridin-3-yl)-6,7-dihydro-2H-pyrazolo[4,3-c]pyridin-4(5H)-one] here?
Answer: 80 to 100%

Question: What about the mortality at 200 ppm [2] of the same compound?
Answer: 80 to 100%

Question: Which results are given for O=C(CN1CCc2nn(-c3cccnc3)cc2C1=O)c1ccccc1 [Compound P18, 5-(2-oxo-2-phenylethyl)-2-(pyridin-3-yl)-2,5,6,7-tetrahydro-4H-pyrazolo[4,3-c]pyridin-4-one]?
Answer: mortality at 200 ppm [1]: 80 to 100%; mortality at 200 ppm [2]: 80 to 100%
